Measurements from patent US10239873B2, “7-azaindole or 4,7-diazaindole derivatives as IKKϵ epsilon and TBK1 inhibitor and pharmaceutical composition comprising same” (GREEN CROSS CORPORATION, priority 2015, dated 2019).

Biological target: T1, TBK1 (Homo sapiens, UniProt Q9UHD2)
T1 construct: purchased Promega (Invitrogen is also named in the same bracket) V4158; PR8031B; V3991 (not assigned to the two kinases)
T1 sequence (Q9UHD2 1-729): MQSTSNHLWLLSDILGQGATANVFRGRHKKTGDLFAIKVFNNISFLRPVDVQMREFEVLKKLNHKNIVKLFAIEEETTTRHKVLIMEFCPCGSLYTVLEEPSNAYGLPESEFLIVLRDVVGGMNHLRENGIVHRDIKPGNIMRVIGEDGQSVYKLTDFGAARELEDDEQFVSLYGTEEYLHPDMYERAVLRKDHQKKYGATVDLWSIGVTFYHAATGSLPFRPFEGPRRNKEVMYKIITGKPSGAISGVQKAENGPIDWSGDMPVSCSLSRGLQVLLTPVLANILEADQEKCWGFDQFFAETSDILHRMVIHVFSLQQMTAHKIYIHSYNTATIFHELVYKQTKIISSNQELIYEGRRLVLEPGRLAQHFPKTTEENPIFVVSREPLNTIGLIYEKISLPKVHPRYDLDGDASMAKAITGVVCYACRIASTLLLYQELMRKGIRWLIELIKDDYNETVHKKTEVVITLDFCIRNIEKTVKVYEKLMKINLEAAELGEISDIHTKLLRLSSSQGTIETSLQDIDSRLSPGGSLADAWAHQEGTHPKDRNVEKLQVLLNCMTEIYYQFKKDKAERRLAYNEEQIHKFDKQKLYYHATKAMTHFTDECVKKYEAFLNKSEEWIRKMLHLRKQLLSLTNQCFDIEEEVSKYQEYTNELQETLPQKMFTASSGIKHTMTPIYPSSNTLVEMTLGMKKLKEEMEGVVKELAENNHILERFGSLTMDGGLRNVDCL
Assay: ADP-Glo Kinase Assay, inhibition activity on TBK1
Type: biochemical
Procedure: Inhibition activities on IKKϵ and TBK1 were evaluated using the compounds of Examples 1 to 250.
The inhibition activities on IKKϵ and TBK1 were measured by a luminometer, IKKϵ/TBK1 Kinase Enzyme System (Promega, Ca# V4158; Invitrogen, PR8031B, Promega, Ca# V3991) and ADP-Glo Kinase Assay using ADP-Glo™ Kinase Analysis Kit (Promega, Ca# V9101) and a kinase reaction buffer [40 mM Tris(pH 7.5), 20 mM MgCl2, 0.1 mg/mL BSA] in accordance with the manufacturer's protocol.

| SMILES | IC50 |
| --- | --- |
| CCS(=O)(=O)c1ccc(-c2cnc3[nH]cc(C4=CCN(C(=O)NC5CCCC5)CC4)c3c2)cc1 [Example 53, N-cyclopentyl-4-(5-(4-(ethylsulfonyl)phenyl)-1H-pyrrolo[2,3-b]pyridin-3-yl)-3,6-dihydropyridine-1(2H)-carboxamide] | 66 nM |
| O=C(NC1CCCC1)N1CC=C(c2c[nH]c3ncc(-c4ccc(S(=O)(=O)N5CCOCC5)cc4)cc23)CC1 [Example 61, N-cyclopentyl-4-(5-(4-(morpholinosulfonyl)phenyl)-1H-pyrrolo[2,3-b]pyridin-3-yl)-5,6-dihydropyridine-1(2H)-carboxamide] | 86 nM |
| O=C(NC1CCCC1)N1CC=C(c2c[nH]c3ncc(-c4cccc(S(=O)(=O)N5CCOCC5)c4)cc23)CC1 [Example 62, N-cyclopentyl-4-(5-(3-(morpholinosulfonyl)phenyl)-1H-pyrrolo[2,3-b]pyridin-3-yl)-5,6-dihydropyridine-1(2H)-carboxamide] | 91 nM |
| O=C(NC1CCCC1)N1CC=C(c2c[nH]c3ncc(-c4ccc(CCN5CCOCC5)cc4)cc23)CC1 [Example 64, N-cyclopentyl-4-(5-(4-(2-morpholinoethyl)phenyl)-1H-pyrrolo[2,3-b]pyridin-3-yl)-5,6-dihydropyridine-1(2H)-carboxamide] | 110 nM |
| CC(=O)Nc1ccc(N)c(-c2cnc3[nH]cc(C4=CCN(C(=O)NC5CCCC5)CC4)c3c2)c1 [Example 65, 4-(5-(5-Acetamido-2-aminophenyl)-1H-pyrrolo[2,3-b]pyridin-3-yl)-N-cyclopentyl-5,6-dihydropyridine-1(2H)-carboxamide] | 1900 nM |
| O=C(NCc1ccco1)c1ccc(-c2cnc3[nH]cc(C4=CCN(C(=O)NC5CCCC5)CC4)c3c2)cc1 [Example 66, N-cyclopentyl-4-(5-(4-((furan-2-ylmethyl)carbamoyl)phenyl)-1H-pyrrolo[2,3-b]pyridin-3-yl)-5,6-dihydropyridine-1(2H)-carboxamide] | 250 nM |
| O=C(NCc1ccco1)c1cccc(-c2cnc3[nH]cc(C4=CCN(C(=O)NC5CCCC5)CC4)c3c2)c1 [Example 67, N-cyclopentyl-4-(5-(3-((furan-2-ylmethyl)carbamoyl)phenyl)-1H-pyrrolo[2,3-b]pyridin-3-yl)-5,6-dihydropyridine-1(2H)-carboxamide] | 410 nM |
| O=C(NC1CCCC1)N1CC=C(c2c[nH]c3ncc(-c4cccc(OCCN5CCOCC5)c4)cc23)CC1 [Example 68, N-cyclopentyl-4-(5-(3-(2-morpholinoethoxy)phenyl)-1H-pyrrolo[2,3-b]pyridin-3-yl)-5,6-dihydropyridine-1(2H)-carboxamide] | 64 nM |
| O=C(NC1CCCC1)N1CC=C(c2c[nH]c3ncc(-c4ccc(OCCN5CCOCC5)cc4)cc23)CC1 [Example 69, N-cyclopentyl-4-(5-(4-(2-morpholinoethoxy)phenyl)-1H-pyrrolo[2,3-b]pyridin-3-yl)-5,6-dihydropyridine-1(2H)-carboxamide] | 65 nM |
| O=C(NC1CCCC1)N1CC=C(c2c[nH]c3ncc(-c4ccc(OCCCN5CCOCC5)cc4)cc23)CC1 [Example 70, N-cyclopentyl-4-(5-(4-(3-morpholinopropoxy)phenyl)-1H-pyrrolo[2,3-b]pyridin-3-yl)-5,6-dihydropyridine-1(2H)-carboxamide] | 400 nM |
| O=C(NC1CCCC1)N1CC=C(c2c[nH]c3ncc(-c4csc(CN5CCOCC5)c4)cc23)CC1 [Example 73, N-cyclopentyl-4-(5-(5-(morpholinomethyl)thiophen-3-yl)-1H-pyrrolo[2,3-b]pyridin-3-yl)-5,6-dihydropyridine-1(2H)-carboxamide] | 620 nM |
| O=C(NC1CCCC1)N1CC=C(c2c[nH]c3ncc(-c4ccc(Cl)c(C(=O)N5CCOCC5)c4)cc23)CC1 [Example 76, 4-(5-(4-Chloro-3-(morpholine-4-carbonyl)phenyl)-1H-pyrrolo[2,3-b]pyridin-3-yl)-N-cyclopentyl-3,6-dihydropyridine-1(2H)-carboxamide 2,2,2-trifluoroacetate] | 290 nM |
| O=C(NC1CCCC1)N1CC=C(c2c[nH]c3ncc(-c4cc(Cl)cc(C(=O)N5CCOCC5)c4)cc23)CC1 [Example 77, 4-(5-(3-Chloro-5-(morpholine-4-carbonyl)phenyl)-1H-pyrrolo[2,3-b]pyridin-3-yl)-N-cyclopentyl-3,6-dihydropyridine-1(2H)-carboxamide 2,2,2-trifluoroacetate] | 250 nM |

Stronger by IC50, values ahead:

| IC50 | SMILES |
| --- | --- |
| 0.73 nM | CC(C)NC(=O)N1CC=C(c2c[nH]c3ncc(-c4ccc(CN5CCOCC5)s4)cc23)CC1 [Example 34, N-isopropyl-4-(5-(5-(morpholinomethyl)thiophen-2-yl)-1H-pyrrolo[2,3-b]pyridin-3-yl)-5,6-dihydropyridine-1(2H)-carboxamide] |
| 5.5 nM | CCC(C)NC(=O)N1CC=C(c2c[nH]c3ncc(-c4ccc(CN5CCOCC5)s4)cc23)CC1 (centres unmarked) [Example 43, N-(sec-butyl)-4-(5-(5-(morpholinomethyl)thiophen-2-yl)-1H-pyrrolo[2,3-b]pyridin-3-yl)-5,6-dihydropyridine-1(2H)-carboxamide] |
| 7.5 nM | CCC(C)NC(=O)N1CC=C(c2c[nH]c3ncc(-c4ccc(OC)c(OC)c4)cc23)CC1 (centres unmarked) [Example 44, N-(sec-butyl)-4-(5-(3,4-dimethoxyphenyl)-1H-pyrrolo[2,3-b]pyridin-3-yl)-5,6-dihydropyridine-1(2H)-carboxamide] |
| 32 nM | COc1ccc(-c2cnc3[nH]cc(C4=CCN(C(=O)NC5CCCC5)CC4)c3c2)cc1OC [Example 49, N-cyclopentyl-4-(5-(3,4-dimethoxyphenyl)-1H-pyrrolo[2,3-b]pyridin-3-yl)-5,6-dihydropyridine-1(2H)-carboxamide] |
| 51 nM | CS(=O)(=O)c1ccc(-c2cnc3[nH]cc(C4=CCN(C(=O)NC5CCCC5)CC4)c3c2)cc1 [Example 51, N-cyclopentyl-4-(5-(4-(methylsulfonyl)phenyl)-1H-pyrrolo[2,3-b]pyridin-3-yl)-5,6-dihydropyridine-1(2H)-carboxamide] |
| 31 nM | NS(=O)(=O)c1cccc(-c2cnc3[nH]cc(C4=CCN(C(=O)NC5CCCC5)CC4)c3c2)c1 [Example 57, N-cyclopentyl-4-(5-(3-sulfamoylphenyl)-1H-pyrrolo[2,3-b]pyridin-3-yl)-5,6-dihydropyridine-1(2H)-carboxamide] |
| 61 nM | NS(=O)(=O)c1ccc(-c2cnc3[nH]cc(C4=CCN(C(=O)NC5CCCC5)CC4)c3c2)cc1 [Example 58, N-cyclopentyl-4-(5-(4-sulfamoylphenyl)-1H-pyrrolo[2,3-b]pyridin-3-yl)-5,6-dihydropyridine-1(2H)-carboxamide] |
| 30 nM | CNS(=O)(=O)c1cccc(-c2cnc3[nH]cc(C4=CCN(C(=O)NC5CCCC5)CC4)c3c2)c1 [Example 59, N-cyclopentyl-4-(5-(3-(N-methylsulfamoyl)phenyl)-1H-pyrrolo[2,3-b]pyridin-3-yl)-5,6-dihydropyridine-1(2H)-carboxamide] |
| 38 nM | CNS(=O)(=O)c1ccc(-c2cnc3[nH]cc(C4=CCN(C(=O)NC5CCCC5)CC4)c3c2)cc1 [Example 60, N-cyclopentyl-4-(5-(4-(N-methylsulfamoyl)phenyl)-1H-pyrrolo[2,3-b]pyridin-3-yl)-5,6-dihydropyridine-1(2H)-carboxamide] |
| 5 nM | CN1CCN(Cc2ccc(-c3cnc4[nH]cc(C5=CCN(C(=O)NC6CCCC6)CC5)c4c3)s2)CC1 [Example 71, N-cyclopentyl-4-(5-(5-((4-methylpiperazin-1-yl)methyl)thiophen-2-yl)-1H-pyrrolo[2,3-b]pyridin-3-yl)-5,6-dihydropyridine-1(2H)-carboxamide] |
| 53 nM | O=C(NC1CCCC1)N1CC=C(c2c[nH]c3ncc(-c4ccc(C(=O)N5CCOCC5)s4)cc23)CC1 [Example 74, N-cyclopentyl-4-(5-(5-(morpholine-4-carbonyl)thiophen-2-yl)-1H-pyrrolo[2,3-b]pyridin-3-yl)-5,6-dihydropyridine-1(2H)-carboxamide] |
| 25 nM | O=C(NC1CCCC1)N1CC=C(c2c[nH]c3ncc(-c4ccc(C(=O)N5CCOCC5)cc4)cc23)CC1 [Example 75, N-cyclopentyl-4-(5-(4-(morpholine-4-carbonyl)phenyl)-1H-pyrrolo[2,3-b]pyridin-3-yl)-5,6-dihydropyridine-1(2H)-carboxamide] |
| 21 nM | COc1ccc(-c2cnc3[nH]cc(C4=CCN(C(=O)NC5CCOC5)CC4)c3c2)cc1OC (centres unmarked) [Example 81, 4-(5-(3,4-Dimethoxyphenyl)-1H-pyrrolo[2,3-b]pyridin-3-yl)-N-(tetrahydrofuran-3-yl)-5,6-dihydropyridine-1(2H)-carboxamide] |
